The values below come from patent publication US20080058400A1, “Skin external preparation” (FUJIFILM CORPORATION, priority 2006, published 2008).

The subject of series [1] is Human normal epidermal keratinocytes. The series is described as follows: Amino acid deficient medium culturing test. In kind it is cell-based. The conditions noted are these: for Relative ratio: number of cells, named amino acid reduced to 10% by weight of general MCDB 153 medium concentration, 5 days culture, non-deficient medium = 100; for growth of human epidermal keratinocytes in deficient medium: medium deficient in the named amino acid. The method, then: Human normal epidermal keratinocytes (Sanko Junyaku) were used as the cells. […] The cells were pre-cultured at 37° C., under an atmosphere of 5% (v/v) CO2 until they became a semi-confluent state.
The keratinocytes cultured under a growing state in a T 75 flask were used. After removing the medium by suction, 5 ml of 0.25% trypsin solution was added thereto and incubated at room temperature for 10 minutes. A 10 ml portion of the medium was added thereto, and the cells were peeled off and recovered by pipetting. The thus obtained cell suspension was centrifuged at 1,000 rpm for 5 minutes, and the supernatant was discarded. The thus obtained cell pellet was suspended in 10 ml of the medium and centrifuged at 1,000 rpm for 5 minutes, and the supernatant was discarded. The thus obtained cell pellet was again suspended in 10 ml of the medium and centrifuged at 1,000 rpm for 5 minutes, and the supernatant was discarded. The thus obtained cell pellet was suspended in 2 ml of the medium, and the number of cells was counted.
As growth factors, 50 mg/l of BPE (bovine pituitary gland extract), 5 mg/l of insulin, 0.1 mM ethanolamine, 0.1 mM phosphoethanolamine and 0.00001 mg EGF ([…]) were added thereto. The aforementioned cells were mixed with 1 ml of this medium at a density of 3×10^4 cells, inoculated onto a 24 well plate and cultured at 37° C. for 5 days under an atmosphere of 5% (v/v) CO2, and then the number of cells was counted.

Series [2] deals with abdominal skin of male hairless mice. The conditions noted are these: for Permeability (%) of the permeated whole amino acids: male, hairless, mouse, 24 h, 1 % by weight. The method, then:
The skin sample was attached to a Keshany-Chien type diffusion cell. A 1 ml portion of each test liquid (described later) was added to the donor phase, and its upper side was sealed with Para Film. A 0.01 mol/l phosphate buffered saline (Wako Pure Chemical Industries) was added to the receptor phase, stirred and incubated at 32° C., and amounts of amino acids were determined by an HPLC method 24 hours later to calculate permeation ratio.
Using an HPLC amino acid analysis system of Shimadzu Corp. (Prominence), the determination was carried out by a post column fluorescence detection method which uses OPA (ortho-phthalaldehyde) as a reaction reagent.

Consider `C[C@H](N)C(=O)O` [Alanine], for which, in series [1], the Relative ratio is on record as 14. The Permeability of each amino acid in series [2] is 8.4%.
Regarding `N=C(N)NCCC[C@H](N)C(=O)O` [Arginine], in series [1], the “growth of human epidermal keratinocytes in deficient medium” value (“growth of human epidermal keratinocytes” below) is “growth was suppressed” and the Relative ratio came out at 8. Moreover, the Permeability of each amino acid in series [2] was found to be 18.1%.
On to `NC(=O)C[C@H](N)C(=O)O` [Asparagine], for which, in series [1], the Relative ratio is reported as 13. For the same compound, the Permeability of each amino acid in series [2] worked out at 14.2%.
As for `N[C@@H](CC(=O)O)C(=O)O` [Aspartic acid], in series [1], the “growth of human epidermal keratinocytes” value is “growth was suppressed” and the Relative ratio is recorded as 6. In series [2], this compound yielded a Permeability of each amino acid of 19.1%.
For `N[C@@H](CS)C(=O)O` [Cysteine] the same measures were “growth was suppressed”, 9 and 14.7%.
Take `OC[C@H]1OC(O)[C@H](O)[C@@H](O)[C@@H]1O` (stereo partly shown) [Glucose]: the “Permeability (%) of the permeated whole amino acids” value in series [2] is listed as 9.6%.
On to `N[C@@H](CCC(=O)O)C(=O)O` [Glutamic acid], for which the Relative ratio in series [1] is recorded as 15.
In the case of `NC(=O)CC[C@H](N)C(=O)O` [Glutamine], in series [1], the Relative ratio amounted to 16. This compound returned a Permeability of each amino acid in series [2] of 10.2%.
On to `NCC(=O)O` [Glycine], for which, in series [1], the “growth of human epidermal keratinocytes” value is “growth was suppressed” and the Relative ratio is 9. This compound also registered a Permeability of each amino acid in series [2] of 14.3%.
With `N[C@@H](Cc1c[nH]cn1)C(=O)O` [Histidine], in series [1], the “growth of human epidermal keratinocytes” value is on record as “growth was suppressed” and the Relative ratio is recorded as 7. In series [2], this compound gave a Permeability of each amino acid of 15.2%.
For `CC[C@H](C)[C@H](N)C(=O)O` [Isoleucine] the same measures were “growth was suppressed”, 7 and 20.8%.
With `CC(C)C[C@H](N)C(=O)O` [Leucine], in series [1], the “growth of human epidermal keratinocytes” value was “growth was suppressed” and the Relative ratio turned out to be 6. This compound also returned a Permeability of each amino acid in series [2] of 21.3%.
For `NCCCC[C@H](N)C(=O)O` [Lysine] the same measures were “growth was suppressed”, 9 and 19.6%.
With `CSCC[C@H](N)C(=O)O` [Methionine], the Relative ratio in series [1] was 12. The Permeability of each amino acid in series [2] was found to be 7.4%.
Turning to `N[C@@H](Cc1ccccc1)C(=O)O` [Phenylalanine], in series [1], the “growth of human epidermal keratinocytes” value is “growth was suppressed” and the Relative ratio came to 4. The compound also registered a Permeability of each amino acid in series [2] of 15.1%.
On to `O=C(O)[C@@H]1CCCN1` [Proline], for which, in series [1], the Relative ratio turned out to be 13. The same compound showed a Permeability of each amino acid in series [2] of 7.9%.
For the compound `N[C@@H](CO)C(=O)O` [Serine], in series [1], the “growth of human epidermal keratinocytes” value was “growth was suppressed” and the Relative ratio was found to be 6. In addition, the Permeability of each amino acid in series [2] amounted to 15.2%.
The matching figures for `C[C@@H](O)[C@H](N)C(=O)O` [Threonine]: “growth was suppressed”, 8 and 19.3%.
Regarding `OC[C@H]1O[C@H](O[C@H]2O[C@H](CO)[C@@H](O)[C@H](O)[C@H]2O)[C@H](O)[C@@H](O)[C@@H]1O` [Trehalose], in series [2], the “Permeability (%) of the permeated whole amino acids” value turned out to be 7.2%.
Turning to `N[C@@H](Cc1c[nH]c2ccccc12)C(=O)O` [Tryptophan], the Relative ratio in series [1] was 15. Moreover, in series [2], the Permeability of each amino acid was 3.6%.
Take `N[C@@H](Cc1ccc(O)cc1)C(=O)O` [Tyrosine]: the “growth of human epidermal keratinocytes” value in series [1] is on record as “growth was suppressed”.
With `CC(C)[C@H](N)C(=O)O` [Valine], in series [1], the “growth of human epidermal keratinocytes” value is “growth was suppressed” and the Relative ratio is reported as 9. For the same compound, the Permeability of each amino acid in series [2] came out at 14.9%.
